According to patent EP0771196B1, “EXCITATORY AMINO ACID RECEPTOR ANTAGONISTS” (ELI LILLY AND COMPANY, priority 1994, dated 1996):
Marks after values point to notes of the source that are not given here. One block for each compound: values may come before it.

Tests used:
[1] = tested on: metabotropic glutamate receptors; assay: Displacement of 1S,3R-ACPD-sensitive [3H]glutamate binding to rat brain cell membranes; conditions: crude membranes of rat forebrain
[2] = tested on: metabotropic glutamate receptors; assay: as above; conditions: crude membranes of rat forebrain; for IC50: inhibition of [3H]glutamate binding
Description: The binding of [^3H]glutamate was conducted with crude membranes of rat forebrain as described by Schoepp and True. Schoepp and True, Neuroscience Lett., 145, 100-104 (1992) and True and Schoepp, Society for Neuroscience Abstracts, 19, 470 (1993). IC50 values for the inhibition of [^3H]glutamate binding, or the percent displacement of [^3H]glutamate binding at a 10 µM concentration, of the formula I compound, is shown in Table II.

Rats = assay: Conditioned active avoidance model; format: in vivo
From the text: This model was developed in the early 50s and 60s (Pfeiffer & Jenney, Ann. N.Y. Acad. Sci., 66:[…], 1957; Maffii, J. Pharm. Pharmacol., 11: 129-139, 1959; Cook & Weidley, Ann; N.Y. Acad. Sci., 66: […], 1957; Janke, Handbook of Experimental Pharmacology, Vol. 55/I, New York: Plenum Press, 1978) and is still the primary model used to screen compounds for antipsychotic efficacy.
Rats were individually placed in a sound attenuated, two compartment test chamber. Active avoidance testing consisted of 20 trials each day. On each trial a light (130 v.) and a sound (85 dbA) were delivered simultaneously and 5 seconds later a 5 mA shock was delivered to the floor of the chamber. After 5 seconds the footshock, the light, and the sound were terminated. The animals learned to move from one side of the chamber to the other side when the light and sound cues were presented to avoid shock (avoidance responding) or the rat moved when the shock was administered (escape). Data were tabulated as mean percent escape or mean percent to avoidance for each test day. Prior to drug testing all animals were trained to successfully avoid shock delivery on 90% of trials.
This profile on conditioned avoidance is indicative of antipsychotic efficacy.

[3] = 0, 1, 3, 10 and 30mg/kg, i.p. 20 minutes prior to testing

IC50 [2]: 8100 nM
SMILES: Cc1cccc(CCC(N)(C(=O)O)C2CC2C(=O)O)c1 [Example 70, 2S-2-amino-2-(1R,2R,2-carboxycyclopropan-1-yl)-4-(3-methylphenyl)butanoic acid]

IC50 [2]: 530 nM
SMILES: N[C@@](CC1c2ccccc2Oc2ccccc21)(C(=O)O)[C@H]1C[C@@H]1C(=O)O [Example 71, 2R-2 amino-2-(1S,2S-2-carboxycyclopropan-1-yl)-3-(dibenzopyran-4-yl)propanoic acid]

IC50 [2]: 860 nM
SMILES: N[C@](Cc1cccc2c1Oc1ccccc1C2)(C(=O)O)[C@@H]1C[C@H]1C(=O)O [Example 73, 2S-2 amino-2-(1R,2R-2-carboxycyclopropan-1-yl)-3-(dibenzopyran-4-yl)propanoic acid]

Continued, compound first:

SMILES: NC(CC(Cc1ccccc1)Cc1ccccc1)(C(=O)O)[C@H]1C[C@@H]1C(=O)O (mixture of isomers) [Example 51, 2SR- and 2RS-2-amino-2-(1SR,2SR-2-carboxycyclopropan-1-yl)-4-benzyl-5-phenylpentanoic acid]
ACPD-Sensitive [^3H]Glutamate Binding % Displacement @ 1 µM ([1]; 1 µM compound): (15% @ 1 µM)

SMILES: NC(CCc1cccc(F)c1)(C(=O)O)[C@H]1C[C@@H]1C(=O)O (mixture of isomers) [Example 81, 2SR- and 2RS-2-amino-2-(1SR,2SR-2-carboxycyclopropan-1-yl)-4-(3-fluorophenyl)butanoic acid]
ACPD-Sensitive [^3H]Glutamate Binding % Displacement @ 0.1 µM ([1]; 0.1 µM compound): (57% @ 0.1 µM)

SMILES: Cc1cccc(CCC(N)(C(=O)O)C2CC2C(=O)O)c1 (stereo not drawn) [Example 69, 2R-2-amino-2-(1R ,2R-2-carboxycyclopropan-1-yl)-4-(3-methylphenyl)butanoic acid]
ACPD-Sensitive [^3H]Glutamate Binding % Displacement at 10 µM ([2]; 10 µM compound, 10 µM): (13%)^d

SMILES: N[C@](CC1c2ccccc2Oc2ccccc21)(C(=O)O)[C@H]1C[C@@H]1C(=O)O [Example 72]
IC50 [2]: 14 nM | avoidance responding (Rats; [3]): dose related decrease in avoidance responding | escape responding (Rats; [3]): not affecting escape responding | activity in the conditioned active avoidance model (Rats; summary statement): active
